Results from ChEMBL document CHEMBL5579846, “Synthesis of thiazolidine-2,4-dione tethered 1,2,3-triazoles as α-amylase inhibitors: In vitro approach coupled with QSAR, molecular docking, molecular dynamics and ADMET studies” (Eur J Med Chem, 2024).

Each compound was assayed against T1, Alpha amylase (Homo sapiens, UniProt P0DUB6) (assay: Inhibition of alpha-amylase (unknown origin) using 1% starch as substrate preincubated for 30 mins followed by substrate addition and measured after 30 mins by colorimetric analysis).
T1 sequence (P0DUB6 whole entry): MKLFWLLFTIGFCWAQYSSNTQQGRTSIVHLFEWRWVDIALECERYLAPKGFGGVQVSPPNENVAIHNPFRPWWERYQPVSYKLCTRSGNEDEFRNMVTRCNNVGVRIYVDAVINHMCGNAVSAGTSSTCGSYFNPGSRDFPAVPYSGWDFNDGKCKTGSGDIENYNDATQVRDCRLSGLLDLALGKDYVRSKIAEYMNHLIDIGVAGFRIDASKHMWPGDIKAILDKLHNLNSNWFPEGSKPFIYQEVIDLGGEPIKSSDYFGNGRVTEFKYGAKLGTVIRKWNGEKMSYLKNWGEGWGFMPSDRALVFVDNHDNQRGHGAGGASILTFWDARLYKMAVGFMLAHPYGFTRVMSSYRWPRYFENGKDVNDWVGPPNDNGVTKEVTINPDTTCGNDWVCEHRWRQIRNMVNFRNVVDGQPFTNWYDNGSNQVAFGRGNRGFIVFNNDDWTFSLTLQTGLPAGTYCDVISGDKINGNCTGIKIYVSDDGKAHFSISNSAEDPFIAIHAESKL
Assay type: protein assay
CN(C)/C=C1\SC(=O)N(Cc2cn(Cc3ccccc3)nn2)C1=O was tested, and the IC50 was 80 µM and the pIC50 was 7.095. Cc1cccc(-n2cc(CN3C(=O)S/C(=C\N(C)C)C3=O)nn2)c1 gave an IC50 of 61 µM and a pIC50 of 7.215. CN(C)/C=C1\SC(=O)N(Cc2cn(-c3ccnc4cc(Cl)ccc34)nn2)C1=O gave an IC50 of 40 µM and a pIC50 of 7.399. CCCCn1cc(CN2C(=O)S/C(=C\N(C)C)C2=O)nn1 showed an IC50 of 58 µM and a pIC50 of 7.24. CN(C)/C=C1\SC(=O)N(Cc2cn(-c3ccc([N+](=O)[O-])cc3)nn2)C1=O gave an IC50 of 59 µM and a pIC50 of 7.227. COc1ccc(-n2cc(CN3C(=O)S/C(=C\N(C)C)C3=O)nn2)cc1 showed an IC50 of 53 µM and a pIC50 of 7.276. COc1cccc(-n2cc(CN3C(=O)S/C(=C\N(C)C)C3=O)nn2)c1 showed an IC50 of 69 µM and a pIC50 of 7.164. In the case of CN(C)/C=C1\SC(=O)N(Cc2cn(-c3ccc(C(F)(F)F)cc3)nn2)C1=O, the IC50 is reported as 84 µM and the pIC50 is reported as 7.077. CN(C)/C=C1\SC(=O)N(Cc2cn(CC(=O)c3ccc(Br)cc3)nn2)C1=O was tested, and the IC50 was 78 µM and the pIC50 was 7.108. C#CCN1C(=O)S/C(=C\N(C)C)C1=O showed an IC50 of 139 µM and a pIC50 of 6.859. CCc1ccccc1-n1cc(CN2C(=O)S/C(=C\N(C)C)C2=O)nn1 was tested, and the IC50 was 49 µM and the pIC50 was 7.307. In the case of CN(C)/C=C1\SC(=O)N(Cc2cn(-c3ccccc3Cl)nn2)C1=O, the IC50 is reported as 91 µM and the pIC50 is reported as 7.039. With CN(C)/C=C1\SC(=O)N(Cc2cn(Cc3ccc(Cl)cc3Cl)nn2)C1=O the IC50 was 45 µM and the pIC50 was 7.349. CN(C)/C=C1\SC(=O)N(Cc2cn(-c3cccc(C(F)(F)F)c3)nn2)C1=O showed an IC50 of 55 µM and a pIC50 of 7.258. Work on CN(C)/C=C1\SC(=O)N(Cc2cn(-c3ccc(F)cc3)nn2)C1=O yielded an IC50 of 93 µM and a pIC50 of 7.031. Compound CN(C)/C=C1\SC(=O)N(Cc2cn(-c3ccccc3)nn2)C1=O has an IC50 of 99 µM and a pIC50 of 7.003. With CN(C)/C=C1\SC(=O)N(Cc2cn(-c3cccc(Cl)c3Cl)nn2)C1=O the IC50 was 60 µM and the pIC50 was 7.222. In the case of CN(C)/C=C1\SC(=O)N(Cc2cn(-c3cccc(Cl)c3)nn2)C1=O, the IC50 is reported as 66 µM and the pIC50 is reported as 7.182. With Cc1cc(C)cc(-n2cc(CN3C(=O)S/C(=C\N(C)C)C3=O)nn2)c1 the IC50 was 66 µM and the pIC50 was 7.182. Compound Cc1ccc(C)c(-n2cc(CN3C(=O)S/C(=C\N(C)C)C3=O)nn2)c1 has an IC50 of 93 µM and a pIC50 of 7.032. For Cc1ccc(-n2cc(CN3C(=O)S/C(=C\N(C)C)C3=O)nn2)c(C)c1, the IC50 was 48 µM and the pIC50 was 7.318. For CN(C)/C=C1\SC(=O)N(Cc2cn(-c3ccccc3C(F)(F)F)nn2)C1=O, the IC50 was 48 µM and the pIC50 was 7.319. For CC(C)c1ccc(-n2cc(CN3C(=O)S/C(=C\N(C)C)C3=O)nn2)cc1, the IC50 was 54 µM and the pIC50 was 7.268. In the case of CN(C)/C=C1\SC(=O)N(Cc2cn(-c3ccc(Cl)cc3)nn2)C1=O, the IC50 is reported as 98 µM and the pIC50 is reported as 7.01. In the case of CCc1ccc(-n2cc(CN3C(=O)S/C(=C\N(C)C)C3=O)nn2)cc1, the IC50 is reported as 68 µM and the pIC50 is reported as 7.169. Compound COc1ccccc1-n1cc(CN2C(=O)S/C(=C\N(C)C)C2=O)nn1 has an IC50 of 65 µM and a pIC50 of 7.185.
